Test results reported in patent US20150105252A1, “SUBSTITUTED PYRAZOLES AS HERBICIDES” (E I DU PONT DE NEMOURS AND COMPANY, priority 2013, published 2015).

Columns and labels:
Settings in all cases: scale 0 to 100
ryegrass, Italian = assay: Test D postemergence; type: in vivo, Lolium multiflorum
Excerpt: (§1) Seeds of plant species selected from bluegrass (annual bluegrass, Poa annua), blackgrass (Alopecurus myosuroides), canarygrass (littleseed canarygrass, Phalaris minor), chickweed (common chickweed, Stellaria media), galium (catchweed bedstraw, Galium aparine), bromegrass, downy (downy bromegrass, Bromus tectorum), field poppy (Papaver rhoeas), field violet (Viola arvensis), foxtail, green (green foxtail, Setaria viridis), deadnettle (henbit deadnettle, Lamium amplexicaule), ryegrass, Italian (Italian ryegrass, Lolium multiflorum), kochia (Kochia scoparia), lambsquarters (Chenopodium album), oilseed rape (Brassica napus), pigweed (redroot pigweed, Amaranthus retroflexus), chamomile (scentless chamomile, Matricaria inodora), speedwell (bird's-eye speedwell, Veronica persica), barley, spring (spring barley, Hordeum vulgare), wheat, spring (spring wheat, Triticum aestivum), buckwheat, wild (wild buckwheat, Polygonum convolvulus), mustard, wild (wild mustard, Sinapis arvensis), oat, wild (wild oat, Avena fatua), radish, wild (wild radish, Raphanus raphanistrum), windgrass (Apera spica-venti), Russian thistle (Salsola kali), barley, winter (winter barley, Hordeum vulgare), and wheat, winter (winter wheat, Triticum aestivum) were planted into a silt loam soil and treated preemergence with test chemicals formulated in a non-phytotoxic solvent mixture which included a surfactant.
(§2) At the same time, these species were planted in pots containing Redi-Earth® planting medium (Scotts Company, 14111 Scottslawn Road, Marysville, Ohio 43041) comprising spaghnum peat moss, vermiculite, wetting agent and starter nutrients and treated with postemergence applications of the test chemicals formulated in the same manner. Plants ranged in height from 2 to 18 cm (1- to 4-leaf stage). Treated plants and controls were maintained in a controlled growth environment for 14 to 21 days after which time all species were compared to controls and visually evaluated. Plant response ratings, summarized in Table D, are based on a scale of 0 to 100 where 0 is no effect and 100 is complete control. A dash (-) response means no test result.

lambsquarters = assay: Test D preemergence; type: in vivo, Chenopodium album
Excerpt: as §1, §2

wheat, winter = assay: Test D preemergence; type: in vivo, Triticum aestivum
Excerpt: as §1, §2

wheat, spring = assay: Test D preemergence; type: in vivo, Triticum aestivum
Excerpt: as §1, §2

field poppy = assay: Test D postemergence; type: in vivo, Papaver rhoeas
Excerpt: as §1, §2

deadnettle = assay: Test D postemergence; type: in vivo, Lamium amplexicaule
Excerpt: as §1, §2

chickweed = assay: Test D postemergence; type: in vivo, Stellaria media
Excerpt: as §1, §2

buckwheat, wild = assay: Test D preemergence; type: in vivo, Polygonum convolvulus
Excerpt: as §1, §2

pigweed = assay: Test D postemergence; type: in vivo, Amaranthus retroflexus
Excerpt: as §1, §2

blackgrass = assay: Test D preemergence; type: in vivo, Alopecurus myosuroides
Excerpt: as §1, §2

Row | SMILES | Ryegrass, Italian plant response rating (ryegrass, Italian; Postemergence, 31 g ai/ha) | Ryegrass, Italian plant response rating (ryegrass, Italian; Postemergence, 125 g ai/ha) | Ryegrass, Italian plant response rating (ryegrass, Italian; Postemergence, 250 g ai/ha) | Ryegrass, Italian plant response rating (ryegrass, Italian; postemergence, 62 g ai/ha) | Plant response rating, Lambsquarters (lambsquarters; 62 g ai/ha) | Plant response rating, Lambsquarters (lambsquarters; 125 g ai/ha) | Plant response rating, Lambsquarters (lambsquarters; 250 g ai/ha) | Plant response rating, Wheat, Winter (wheat, winter; 62 g ai/ha) | Plant response rating, Wheat, Winter (wheat, winter; 125 g ai/ha) | Plant response rating, Wheat, Winter (wheat, winter; 250 g ai/ha) | Plant response rating, Wheat, Spring (wheat, spring; 62 g ai/ha) | Plant response rating, Wheat, Spring (wheat, spring; 125 g ai/ha) | Plant response rating, Wheat, Spring (wheat, spring; 250 g ai/ha) | Field Poppy plant response rating (field poppy; Postemergence, 31 g ai/ha) | Field Poppy plant response rating (field poppy; Postemergence, 125 g ai/ha) | Field Poppy plant response rating (field poppy; Postemergence, 250 g ai/ha) | Field Poppy plant response rating (field poppy; postemergence, 62 g ai/ha) | Deadnettle plant response rating (deadnettle; Postemergence, 31 g ai/ha) | Deadnettle plant response rating (deadnettle; Postemergence, 125 g ai/ha) | Deadnettle plant response rating (deadnettle; Postemergence, 250 g ai/ha) | other results
1 | CCc1cc(C(=O)NC(C)C)nn1Cc1ccnc(C(F)(F)F)c1 [Compound 103] | 5 | 5 | 35 | 5 | 70 | 100 | 100 | 10 | 65 | 70 | 10 | 25 | 85 | 40 | 60 | 70 | 55 | 20 | 25 | 30 | Plant response rating, Lambsquarters (lambsquarters; 31 g ai/ha): 65; Plant response rating, Wheat, Winter (wheat, winter; 31 g ai/ha): 0; Plant response rating, Wheat, Spring (wheat, spring; 31 g ai/ha): 0; Deadnettle plant response rating (deadnettle; postemergence, 62 g ai/ha): 25; Chickweed plant response rating (chickweed; Postemergence, 31 g ai/ha): 20; Chickweed plant response rating (chickweed; Postemergence, 125 g ai/ha): 40; Chickweed plant response rating (chickweed; Postemergence, 250 g ai/ha): 70; Chickweed plant response rating (chickweed; postemergence, 62 g ai/ha): 25; Plant response rating, Buckwheat, Wild (buckwheat, wild; 31 g ai/ha): 75; Plant response rating, Buckwheat, Wild (buckwheat, wild; 62 g ai/ha): 100; Plant response rating, Buckwheat, Wild (buckwheat, wild; 125 g ai/ha): 100; Plant response rating, Buckwheat, Wild (buckwheat, wild; 250 g ai/ha): 100; Pigweed plant response rating (pigweed; Postemergence, 31 g ai/ha): 70; Pigweed plant response rating (pigweed; Postemergence, 125 g ai/ha): 65; Pigweed plant response rating (pigweed; Postemergence, 250 g ai/ha): 70; Pigweed plant response rating (pigweed; postemergence, 62 g ai/ha): 60; Plant response rating, Blackgrass (blackgrass; 62 g ai/ha): 50; Plant response rating, Blackgrass (blackgrass; 125 g ai/ha): 85; Plant response rating, Blackgrass (blackgrass; 250 g ai/ha): 100
2 | CCCc1cc(C(=O)NCC(F)(F)F)nn1Cc1cc(C(F)(F)F)nn1C [Compound 138] | 15 | 15 | 55 | 15 | 85 | 100 | 100 | 30 | 40 | 60 | 10 | 35 | 50 | 55 | 65 | 75 | 55 | 65 | 75 | 85 | Deadnettle plant response rating (deadnettle; postemergence, 62 g ai/ha): 65; Chickweed plant response rating (chickweed; Postemergence, 31 g ai/ha): 70; Chickweed plant response rating (chickweed; Postemergence, 125 g ai/ha): 80; Chickweed plant response rating (chickweed; Postemergence, 250 g ai/ha): 75; Chickweed plant response rating (chickweed; postemergence, 62 g ai/ha): 70; Plant response rating, Buckwheat, Wild (buckwheat, wild; 31 g ai/ha): 45; Plant response rating, Buckwheat, Wild (buckwheat, wild; 62 g ai/ha): 50; Plant response rating, Buckwheat, Wild (buckwheat, wild; 125 g ai/ha): 70; Plant response rating, Buckwheat, Wild (buckwheat, wild; 250 g ai/ha): 100; Pigweed plant response rating (pigweed; Postemergence, 31 g ai/ha): 90; Pigweed plant response rating (pigweed; Postemergence, 125 g ai/ha): 90; Pigweed plant response rating (pigweed; Postemergence, 250 g ai/ha): 90; Pigweed plant response rating (pigweed; postemergence, 62 g ai/ha): 90; Plant response rating, Blackgrass (blackgrass; 31 g ai/ha): 15; Plant response rating, Blackgrass (blackgrass; 62 g ai/ha): 30; Plant response rating, Blackgrass (blackgrass; 125 g ai/ha): 85; Plant response rating, Blackgrass (blackgrass; 250 g ai/ha): 100
3 | CCOc1cc(C(=O)NC2CC2)nn1Cc1ccnc(C(F)(F)F)c1 [Compound 189] | 10 | 20 | 30 | 10 | 100 | 100 | 100 | 15 | 65 | 85 | 10 | 40 | 80 | 55 | 75 | 75 | 55 | 45 | 55 | 75 | Deadnettle plant response rating (deadnettle; postemergence, 62 g ai/ha): 45; Chickweed plant response rating (chickweed; Postemergence, 31 g ai/ha): 75; Chickweed plant response rating (chickweed; Postemergence, 125 g ai/ha): 70; Chickweed plant response rating (chickweed; Postemergence, 250 g ai/ha): 85; Chickweed plant response rating (chickweed; postemergence, 62 g ai/ha): 75; Plant response rating, Buckwheat, Wild (buckwheat, wild; 31 g ai/ha): 100; Plant response rating, Buckwheat, Wild (buckwheat, wild; 62 g ai/ha): 100; Plant response rating, Buckwheat, Wild (buckwheat, wild; 125 g ai/ha): 100; Plant response rating, Buckwheat, Wild (buckwheat, wild; 250 g ai/ha): 100; Pigweed plant response rating (pigweed; Postemergence, 31 g ai/ha): 70; Pigweed plant response rating (pigweed; Postemergence, 125 g ai/ha): 70; Pigweed plant response rating (pigweed; Postemergence, 250 g ai/ha): 75; Pigweed plant response rating (pigweed; postemergence, 62 g ai/ha): 70; Plant response rating, Blackgrass (blackgrass; 31 g ai/ha): 35; Plant response rating, Blackgrass (blackgrass; 62 g ai/ha): 60; Plant response rating, Blackgrass (blackgrass; 125 g ai/ha): 80; Plant response rating, Blackgrass (blackgrass; 250 g ai/ha): 100
